Eight compounds from ChEMBL document CHEMBL5325403, “Benzenesulfonyl thiazoloimines as unique multitargeting antibacterial agents towards Enterococcus faecalis” (Eur J Med Chem, 2023) can be followed below.

Converted amounts (≈) assume the structure as drawn.

As a reminder, the MIC is the smallest concentration in the dilution series that meets the test's criterion for growth inhibition.

Assay type in all cases: functional
Assay [1] has as its system Staphylococcus aureus. As to the kind of experiment: Antibacterial activity against methicillin-resistant Staphylococcus aureus N315 assessed as inhibition of bacterial growth by continuous dilution method.
For assay [2], the system named is Staphylococcus aureus. As to the kind of experiment: Antibacterial activity against Staphylococcus aureus ATCC 25923 assessed as inhibition of bacterial growth by continuous dilution method.
The test system of assay [3] is Escherichia coli. Kind of assay: Antibacterial activity against Escherichia coli ATCC 25922 assessed as inhibition of bacterial growth by continuous dilution method.
The subject of a further assay is Klebsiella pneumoniae. Kind of assay: Antibacterial activity against Klebsiella pneumoniae assessed as inhibition of bacterial growth by continuous dilution method.
Assay [4] relates to Pseudomonas aeruginosa. Kind of assay: Antibacterial activity against Pseudomonas aeruginosa ATCC 27853 assessed as inhibition of bacterial growth by continuous dilution method.
Another assay concerns Acinetobacter baumannii. As to the kind of experiment: Antibacterial activity against Acinetobacter baumannii assessed as inhibition of bacterial growth by continuous dilution method.
In assay [5] the test system is Escherichia coli. Kind of assay: Antibacterial activity against Escherichia coli assessed as inhibition of bacterial growth by continuous dilution method.
Assay [6] has as its system Pseudomonas aeruginosa. As to the kind of experiment: Antibacterial activity against Pseudomonas aeruginosa assessed as inhibition of bacterial growth by continuous dilution method.
The subject of assay [7] is Staphylococcus aureus. Kind of assay: Antibacterial activity against Staphylococcus aureus assessed as inhibition of bacterial growth by continuous dilution method.
A further assay has as its system Enterococcus faecalis. Kind of assay: Antibacterial activity against Enterococcus faecalis assessed as inhibition of bacterial growth by continuous dilution method.
Assay [8] concerns Staphylococcus aureus. Kind of assay: Antibacterial activity against Staphylococcus aureus ATCC 29213 assessed as inhibition of bacterial growth by continuous dilution method.

For the compound `CC(=O)Nc1ccc(S(=O)(=O)C/C(=N/Nc2ccc(Cl)cc2)c2nccs2)cc1`, the MIC was 256 µg/mL (≈ 570 µM) in the assay with Staphylococcus aureus [1]; 256 µg/mL (≈ 570 µM) with Staphylococcus aureus [2]; 128 µg/mL (≈ 285 µM) with Escherichia coli [3]; 256 µg/mL (≈ 570 µM) in the assay with Klebsiella pneumoniae; 128 µg/mL (≈ 285 µM) in the assay on Pseudomonas aeruginosa [4]; 256 µg/mL (≈ 570 µM) in the assay with Acinetobacter baumannii. Moreover, the MIC with Escherichia coli [5] was determined as 128 µg/mL (≈ 285 µM); in the assay with Pseudomonas aeruginosa [6], 256 µg/mL (≈ 570 µM); in the assay on Staphylococcus aureus [7], 128 µg/mL (≈ 285 µM); with Enterococcus faecalis, 64 µg/mL (≈ 143 µM); with Staphylococcus aureus [8], 128 µg/mL (≈ 285 µM).

For the compound `COc1ccc(/C=C(/C(=O)c2nccs2)S(=O)(=O)c2ccc(NC(C)=O)cc2)cc1`, the MIC in the assay with Staphylococcus aureus [1] was 4 µg/mL (≈ 9.04 µM); with Staphylococcus aureus [2] it was 32 µg/mL (≈ 72.3 µM); with Escherichia coli [3], 64 µg/mL (≈ 145 µM); in the assay with Klebsiella pneumoniae, 32 µg/mL (≈ 72.3 µM); in the assay on Pseudomonas aeruginosa [4] it was 128 µg/mL (≈ 289 µM); with Acinetobacter baumannii it was 128 µg/mL (≈ 289 µM). The MIC is 32 µg/mL (≈ 72.3 µM) in the assay with Escherichia coli [5]; 128 µg/mL (≈ 289 µM) with Pseudomonas aeruginosa [6]; 32 µg/mL (≈ 72.3 µM) in the assay with Staphylococcus aureus [7]; 4 µg/mL (≈ 9.04 µM) with Enterococcus faecalis; 16 µg/mL (≈ 36.2 µM) with Staphylococcus aureus [8].

As for `N#CCO/N=C(/CS(=O)(=O)c1ccc(N)cc1)c1nccs1`, the MIC with Staphylococcus aureus [1] was 64 µg/mL (≈ 190 µM); in the assay with Staphylococcus aureus [2], 64 µg/mL (≈ 190 µM); in the assay with Escherichia coli [3], 8 µg/mL (≈ 23.8 µM); in the assay with Klebsiella pneumoniae it was 64 µg/mL (≈ 190 µM); in the assay on Pseudomonas aeruginosa [4] it was 32 µg/mL (≈ 95.1 µM); in the assay on Acinetobacter baumannii, 128 µg/mL (≈ 381 µM). Moreover, the MIC with Escherichia coli [5] amounted to 16 µg/mL (≈ 47.6 µM); in the assay on Pseudomonas aeruginosa [6] it was 64 µg/mL (≈ 190 µM); with Staphylococcus aureus [7], 128 µg/mL (≈ 381 µM); in the assay on Enterococcus faecalis, 64 µg/mL (≈ 190 µM); in the assay with Staphylococcus aureus [8], 64 µg/mL (≈ 190 µM).

For `CC(=O)Nc1ccc(S(=O)(=O)/C(=C\c2ccc(F)cc2)C(=O)c2nccs2)cc1`, the MIC in the assay with Staphylococcus aureus [1] came out at 128 µg/mL (≈ 297 µM); with Staphylococcus aureus [2], 256 µg/mL (≈ 595 µM); in the assay with Escherichia coli [3], 64 µg/mL (≈ 149 µM); in the assay with Klebsiella pneumoniae, 128 µg/mL (≈ 297 µM); with Pseudomonas aeruginosa [4] it was 64 µg/mL (≈ 149 µM); in the assay on Acinetobacter baumannii it was 64 µg/mL (≈ 149 µM). Besides, the minimum inhibitory concentration (MIC) in the assay on Escherichia coli [5] was 128 µg/mL (≈ 297 µM); with Pseudomonas aeruginosa [6] it was 256 µg/mL (≈ 595 µM); in the assay with Staphylococcus aureus [7], 128 µg/mL (≈ 297 µM); with Enterococcus faecalis it was 128 µg/mL (≈ 297 µM); with Staphylococcus aureus [8] it was 128 µg/mL (≈ 297 µM).

Regarding `CCCCCCCCO/N=C(/CS(=O)(=O)c1ccc(N)cc1)c1nccs1`, the MIC in the assay with Staphylococcus aureus [1] was determined as 64 µg/mL (≈ 156 µM); in the assay on Staphylococcus aureus [2] it was 32 µg/mL (≈ 78.1 µM); in the assay with Escherichia coli [3], 32 µg/mL (≈ 78.1 µM); in the assay with Klebsiella pneumoniae, 32 µg/mL (≈ 78.1 µM); in the assay on Pseudomonas aeruginosa [4], 16 µg/mL (≈ 39.1 µM); in the assay on Acinetobacter baumannii it was 64 µg/mL (≈ 156 µM). Further, the MIC with Escherichia coli [5] stood at 32 µg/mL (≈ 78.1 µM); in the assay with Pseudomonas aeruginosa [6], 64 µg/mL (≈ 156 µM); with Staphylococcus aureus [7], 128 µg/mL (≈ 313 µM); in the assay with Enterococcus faecalis it was 32 µg/mL (≈ 78.1 µM); with Staphylococcus aureus [8], 64 µg/mL (≈ 156 µM).

In the case of `C#CCO/N=C(/CS(=O)(=O)c1ccc(N)cc1)c1nccs1`, the MIC with Staphylococcus aureus [1] worked out at 64 µg/mL (≈ 191 µM); in the assay with Staphylococcus aureus [2], 32 µg/mL (≈ 95.4 µM); with Escherichia coli [3], 32 µg/mL (≈ 95.4 µM); in the assay on Klebsiella pneumoniae it was 32 µg/mL (≈ 95.4 µM); in the assay on Pseudomonas aeruginosa [4], 32 µg/mL (≈ 95.4 µM); with Acinetobacter baumannii it was 64 µg/mL (≈ 191 µM). Moreover, the MIC in the assay with Escherichia coli [5] was 32 µg/mL (≈ 95.4 µM); in the assay with Pseudomonas aeruginosa [6] it was 64 µg/mL (≈ 191 µM); in the assay on Staphylococcus aureus [7] it was 64 µg/mL (≈ 191 µM); with Enterococcus faecalis it was 64 µg/mL (≈ 191 µM); with Staphylococcus aureus [8], 64 µg/mL (≈ 191 µM).

For the compound `CC(=O)Nc1ccc(S(=O)(=O)C/C(=N/Nc2ccc([N+](=O)[O-])cc2[N+](=O)[O-])c2nccs2)cc1`, the MIC with Staphylococcus aureus [1] was 8 µg/mL (≈ 15.9 µM); with Staphylococcus aureus [2], 4 µg/mL (≈ 7.93 µM); in the assay with Escherichia coli [3] it was 4 µg/mL (≈ 7.93 µM); in the assay on Klebsiella pneumoniae it was 64 µg/mL (≈ 127 µM); in the assay with Pseudomonas aeruginosa [4] it was 32 µg/mL (≈ 63.4 µM); in the assay on Acinetobacter baumannii, 4 µg/mL (≈ 7.93 µM). In addition, the MIC in the assay on Escherichia coli [5] was 64 µg/mL (≈ 127 µM); in the assay on Pseudomonas aeruginosa [6], 64 µg/mL (≈ 127 µM); with Staphylococcus aureus [7], 2 µg/mL (≈ 3.96 µM); in the assay with Enterococcus faecalis, 2 µg/mL (≈ 3.96 µM); in the assay on Staphylococcus aureus [8] it was 32 µg/mL (≈ 63.4 µM).

Turning to `CCCCCCCCO/N=C(/CS(=O)(=O)c1ccc(NC(C)=O)cc1)c1nccs1`, the minimal inhibitory concentration (MIC) was determined as 64 µg/mL (≈ 142 µM) in the assay with Staphylococcus aureus [1]; 64 µg/mL (≈ 142 µM) with Staphylococcus aureus [2]; 16 µg/mL (≈ 35.4 µM) in the assay with Escherichia coli [3]; 64 µg/mL (≈ 142 µM) in the assay with Klebsiella pneumoniae; 64 µg/mL (≈ 142 µM) in the assay on Pseudomonas aeruginosa [4]; 128 µg/mL (≈ 283 µM) in the assay on Acinetobacter baumannii. The MIC in the assay on Escherichia coli [5] came to 32 µg/mL (≈ 70.9 µM); with Pseudomonas aeruginosa [6] it was 64 µg/mL (≈ 142 µM); in the assay on Staphylococcus aureus [7], 128 µg/mL (≈ 283 µM); in the assay with Enterococcus faecalis it was 64 µg/mL (≈ 142 µM); in the assay with Staphylococcus aureus [8], 64 µg/mL (≈ 142 µM).
